Measurements as given in US20240174727A1, “LONG-ACTING NATRIURETIC PEPTIDES AND USES THEREOF” (Eli Lilly and Company, priority 2022, published 2024).
Read-outs that look alike come from different tables or passages of the source. Numbered stars: 1 amine (or outer) side, 2 acyl side, 3 side chain; on linkers, the order of the positions; unused ones are H or OH. Bridge positions count the residues as written; N and C are the ends. Square brackets hold non-standard residues; d marks the D form. Peptide text beside a SMILES is read from it. * marks the point of attachment. PEG24 = NCCOCCOCCOCCOCCOCCOCCOCCOCCOCCOCCOCCOCCOCCOCCOCCOCCOCCOCCOCCOCCOCCOCCOCCOCCC(=O)O; C20 diacid = O=C(O)CCCCCCCCCCCCCCCCCCC(=O)*; γGlu = O=C(O)[C@H](CCC(=O)[*:2])N[*:1]; 4Pal = N[C@@H](Cc1ccncc1)C(=O)O; Aib = CC(C)(N)C(=O)O; CH2 = C([*:1])[*:2]

Target: T1, human NPRA (Homo sapiens, UniProt P16066)
T1 construct: Full-Length cDNA Cloning and Generation of Cell Lines Overexpressing Natriuretic Peptide Receptors (NPRs); expressed in transfected cells; host or cells: Jump-in T-Rex HEK293 cells, pJTI R4 CMV-TO MCS pA vector, tetracycline induction
T1 sequence (P16066 33-1061): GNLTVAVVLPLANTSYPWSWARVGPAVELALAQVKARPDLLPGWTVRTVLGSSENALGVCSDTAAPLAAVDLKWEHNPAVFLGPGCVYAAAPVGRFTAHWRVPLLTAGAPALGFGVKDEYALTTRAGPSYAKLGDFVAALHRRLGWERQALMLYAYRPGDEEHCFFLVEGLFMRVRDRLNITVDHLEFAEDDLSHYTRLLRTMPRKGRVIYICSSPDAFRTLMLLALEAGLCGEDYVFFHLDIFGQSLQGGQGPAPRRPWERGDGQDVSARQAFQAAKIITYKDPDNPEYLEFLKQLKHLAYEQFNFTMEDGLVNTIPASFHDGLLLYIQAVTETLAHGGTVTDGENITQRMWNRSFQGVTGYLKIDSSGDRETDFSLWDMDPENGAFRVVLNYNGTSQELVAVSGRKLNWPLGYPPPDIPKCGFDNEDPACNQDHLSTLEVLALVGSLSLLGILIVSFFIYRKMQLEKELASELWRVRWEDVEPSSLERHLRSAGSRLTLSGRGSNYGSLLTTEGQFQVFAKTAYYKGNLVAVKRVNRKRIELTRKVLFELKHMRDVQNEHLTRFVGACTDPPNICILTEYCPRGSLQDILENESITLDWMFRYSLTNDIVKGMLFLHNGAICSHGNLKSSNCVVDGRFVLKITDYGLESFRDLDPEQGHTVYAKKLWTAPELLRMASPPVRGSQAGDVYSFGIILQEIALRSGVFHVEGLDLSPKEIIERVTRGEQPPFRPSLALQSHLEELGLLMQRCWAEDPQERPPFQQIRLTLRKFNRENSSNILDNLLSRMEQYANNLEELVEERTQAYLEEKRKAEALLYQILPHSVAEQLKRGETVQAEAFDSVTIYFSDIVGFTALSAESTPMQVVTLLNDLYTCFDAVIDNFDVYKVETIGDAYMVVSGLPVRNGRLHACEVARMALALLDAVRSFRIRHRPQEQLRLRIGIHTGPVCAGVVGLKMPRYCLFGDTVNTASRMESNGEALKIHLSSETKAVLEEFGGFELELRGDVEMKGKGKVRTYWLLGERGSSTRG
Test: Human NPRA cGMP activity assay (HTRF) in HEK293 cells overexpressing NPRA
Format: cell-based
Protocol: All sequences were verified by full-length sequencing performed by ACGT DNA Sequencing Services (Wheeling, IL). The target cDNA was cloned into pJTI R4 CMV-TO MCS pA vector and then co-transfected with pJT1R4 Int vector into Jump-in™ T-Rex™ HEK293 cells for mammalian inducible expression using Jump-in™ T-Rex™ HEK293 kit and Lipofectamine LTX and Plus Reagent following manufacturer's protocols, as briefly described below.
Jump-in™ T-Rex™ HEK293 cells were plated in a BioCOAT® poly-D-lysine coated 6-well plate (Becton Dickinson, cat no. 354413) at 1 million cells/well in 2 mL culture medium and incubated for 18 h at 37° C. and 5% CO2 to 50-70% confluence. A cDNA mix was made in a 50 mL tube by adding 1.5 μg target cDNA, 1.5 μg pJT1R4 Int vector, 3 μL Plus Reagent, and 300 μL Opti-MEM I sequentially into the tube. A reagent mix was made in a separate 50 mL tube by adding 7.5 μL Lipofectamine LTX into 300 μL Opti-MEM I. The mixtures were incubated for 5 min at room temperature. The cDNA mix was then transferred into the reagent mix, mixed well, and incubated for additional 30 min at room temperature. A 500 μL of cDNA/Lipofectamine complex was then transferred to the wells of the cell plate in which the culture medium was changed to 2 mL of transfection medium containing DMEM with 4.5 g/L D-glucose supplemented with 10% FBS-HI and 20 mM HEPES. Transfected cells were cultured for 48 h in an incubator at 37° C. and 5% CO2. A subclone or pool from each overexpressing cell line was maintained in culture medium with the addition of 2 mg/mL G418 sulfate for the clone selection based on its built-in resistance to G418 sulfate for at least 3 weeks with medium changed every 2-3 days.
NPRs were overexpressed in T-Rex™ HEK293 cells following the induction with 300 ng/mL tetracycline in culture medium for 48 h. Induced cell lines in an exponential growth phase were treated with 0.05% trypsin-EDTA for a few seconds at room temperature, harvested in cell medium containing FBS to neutralize the trypsin, counted, and cryopreserved at the density of 2 million cells/mL in cell preservation solution containing FBS-HI with 5% DMSO. Cryopreserved cells were stored at −80° C. for a few days prior to transferring to a liquid nitrogen tank. Induced cell lines were then used for suspension assays to measure the activity of polypeptides to stimulate cGMP production in cGMP assays or for the preparation of cell membranes to measure the binding activity of polypeptides in competitive radioligand binding assays, as described below.
Test polypeptides were added starting at 10 μM concentration and at 10-fold decreasing concentrations to obtain 8-point concentration-response curves (i.e., 10 μM to 1 pM). The quantity of cGMP generated was detected using HTRF® technology and normalized to maximum amount produced by 100 nM amidated rat ANP and the minimum amount produced by assay buffer. Detailed steps are outlined below.
Stock solutions of test polypeptides (2 mM) dissolved in DMSO were first diluted 100-fold in assay buffer containing HBSS with Ca^2+ and Mg^2+, 5 mM HEPES, 0.5 mM IBMX, and 0.1% BSA or 0.1% casein (pH 7.4). The polypeptides were further serially diluted in 1:10 dilution steps in assay buffer containing 0.1% BSA or 0.1% casein to generate 8-point 2× working stock solutions ranging from 20 μM to […].
A 10 μL cell suspension containing 4000 cells was plated in Costar® half-area white opaque 96-well plates (Corning, cat no. 3693). Then 10 μL of assay buffer (basal activity), 200 nM of amidated rat ANP (maximum activity) or 2× working stock solutions of test polypeptides were transferred into the plate. Final concentration of DMSO in each well was 0.5%. The plate was shaken for 15 sec and then incubated for 40 min at room temperature.
The cGMP generated was measured using cGMP kit following the manufacturer's directions, as described below.

[1] = assay buffer with 0.1% casein, read-out: cGMP Assay (EC50, pM) w/Casein hNPRA

Compound	EC50 [1]	other results
CC[C@H](C)[C@@H]1NC(=O)[C@H](CCCNC(=N)N)NC(=O)[C@H](CC(=O)O)NC(=O)[C@H]([C@@H](C)CC)NC(=O)[C@H](CCCNC(=N)N)NC(=O)CNC(=O)[C@H](Cc2c[nH]cn2)NC(=O)[C@H](Cc2ccccc2)NC(=O)[C@@H](NC(=O)[C@H](CO)NC(=O)[C@H](CO)NC(=O)[C@H](CCCNC(=N)N)NC(=O)[C@H](CCCNC(=N)N)NC(=O)[C@H](Cc2c[nH]cn2)NC(=O)[C@H](CO)NC(=O)CNC(=O)[C@H](CCCCN)NC(=O)[C@H](CCC(=O)O)NC(=O)[C@H](CCCCN)NC(=O)[C@H](CCC(=O)O)NC(=O)[C@H](CCCCN)NC(=O)[C@H](CCC(=O)O)NC(=O)CC[C@H](NC(=O)CCCCCCCCCCCCCCCCCCC(=O)O)C(=O)O)CSSC[C@@H](C(=O)N[C@@H](CC(N)=O)C(=O)N[C@@H](CO)C(=O)N[C@@H](Cc2ccccc2)C(=O)N[C@@H](CCCNC(=N)N)C(=O)N[C@@H](Cc2c[nH]cn2)C(N)=O)NC(=O)CNC(=O)[C@H](CC(C)C)NC(=O)CNC(=O)[C@H](CO)NC(=O)[C@H](CCC(N)=O)NC(=O)[C@H](C)NC(=O)[C@H](Cc2c[nH]cn2)NC1=O [Example 16] ({C20 diacid-γGlu}-EKEKEKGSHRRSSCFHGRIDRIHAQSGLGCNSFRH-NH2; disulfide 14-30)	807 pM	–
CC[C@H](C)[C@@H]1NC(=O)[C@H](CCCNC(=N)N)NC(=O)[C@H](CC(=O)O)NC(=O)[C@H]([C@@H](C)CC)NC(=O)[C@H](CCCNC(=N)N)NC(=O)CNC(=O)CNC(=O)[C@H](Cc2ccccc2)NC(=O)[C@@H](NC(=O)[C@H](CO)NC(=O)[C@H](CO)NC(=O)[C@H](CCCNC(=N)N)NC(=O)[C@H](CCCNC(=N)N)NC(=O)[C@H](CC(C)C)NC(=O)[C@H](CO)NC(=O)CNC(=O)[C@H](CCCCN)NC(=O)[C@H](CCC(=O)O)NC(=O)[C@H](CCCCN)NC(=O)[C@H](CCC(=O)O)NC(=O)[C@H](CCCCN)NC(=O)[C@H](CCC(=O)O)NC(=O)CC[C@H](NC(=O)CCCCCCCCCCCCCCCCCCC(=O)O)C(=O)O)CSSC[C@@H](C(=O)N[C@@H](CC(N)=O)C(=O)N[C@@H](CO)C(=O)N[C@@H](Cc2ccccc2)C(=O)N[C@@H](CCCNC(=N)N)C(=O)N[C@@H](Cc2ccncc2)C(N)=O)NC(=O)CNC(=O)[C@H](CC(C)C)NC(=O)CNC(=O)[C@H](CO)NC(=O)[C@H](CCC(N)=O)NC(=O)[C@H](C)NC(=O)CNC1=O [Example 9] ({C20 diacid-γGlu}-EKEKEKGSLRRSSCFGGRIDRIGAQSGLGCNSFR[4Pal]-NH2; disulfide 14-30)	–	EC50 (assay buffer with 0.1% BSA, read-out: cGMP Assay (EC50, pM) w/BSA hNPRA): 101000 pM
{C20 diacid-γGlu}-EKEKEKG[PEG24]S[4Pal]RRSSCFGGRIDRIGHQSGLGCPSFRHGGPPS[Aib]KPPPK-NH2 (linker 15-31 via CH2) [Example 84]	1010 pM	–
CC[C@H](C)[C@@H]1NC(=O)[C@H](CCCNC(=N)N)NC(=O)[C@H](CC(=O)O)NC(=O)[C@H]([C@@H](C)CC)NC(=O)[C@H](CCCNC(=N)N)NC(=O)[C@H](CCCCN)NC(=O)CNC(=O)[C@H](Cc2ccccc2)NC(=O)[C@@H](NC(=O)[C@H](CO)NC(=O)[C@H](CO)NC(=O)[C@H](CCCNC(=N)N)NC(=O)[C@@H]2CCCN2C(=O)[C@H](CCCCN)NC(=O)[C@H](CCC(=O)O)NC(=O)CNC(=O)[C@H](CCCCN)NC(=O)[C@H](CCC(=O)O)NC(=O)[C@H](CCCCN)NC(=O)[C@H](CCC(=O)O)NC(=O)[C@H](CCCCN)NC(=O)[C@H](CCC(=O)O)NC(=O)CC[C@H](NC(=O)CCCCCCCCCCCCCCCCCCC(=O)O)C(=O)O)CSCSC[C@@H](C(=O)N2CCC[C@H]2C(=O)N[C@@H](CO)C(=O)N[C@@H](Cc2ccccc2)C(=O)N[C@@H](CCCNC(=N)N)C(=O)N[C@@H](Cc2c[nH]cn2)C(=O)NCC(=O)N[C@@H](CO)C(=O)N2CCC[C@H]2C(=O)N[C@@H](CO)C(=O)N[C@@H](CO)C(=O)NCC(=O)N[C@@H](C)C(=O)N2CCC[C@H]2C(=O)N2CCC[C@H]2C(=O)N2CCC[C@H]2C(=O)N[C@@H](CO)C(N)=O)NC(=O)CNC(=O)[C@H](CC(C)C)NC(=O)CNC(=O)[C@H](CO)NC(=O)[C@H](Cc2ccc(O)cc2)NC(=O)[C@H](CCCN)NC(=O)CNC1=O [Example 135]	–	EC50 (cGMP Assay (EC50, pM) w/BSA hNPRA, assay buffer with 0.1% BSA): 104000 pM; EC50 (cGMP Assay (EC50, pM) w/Casein hNPRA, assay buffer with 0.1% casein): 497 pM
CC[C@H](C)[C@@H]1NC(=O)[C@H](CCCNC(=N)N)NC(=O)[C@H](CC(=O)O)NC(=O)[C@H]([C@@H](C)CC)NC(=O)[C@H](CCCNC(=N)N)NC(=O)CNC(=O)CNC(=O)[C@H](Cc2ccccc2)NC(=O)[C@@H](NC(=O)[C@H](CO)NC(=O)[C@H](CO)NC(=O)[C@H](CCCNC(=N)N)NC(=O)[C@H](CCCNC(=N)N)NC(=O)[C@H](Cc2c[nH]cn2)NC(=O)[C@H](CO)NC(=O)CNC(=O)[C@H](CCCCN)NC(=O)[C@H](CCC(=O)O)NC(=O)[C@H](CCCCN)NC(=O)[C@H](CCC(=O)O)NC(=O)[C@H](CCCCN)NC(=O)[C@H](CCC(=O)O)NC(=O)CC[C@H](NC(=O)CCCCCCCCCCCCCCCCCCC(=O)O)C(=O)O)CSSC[C@@H](C(=O)N2CCC[C@H]2C(=O)N[C@@H](CO)C(=O)N[C@@H](Cc2ccccc2)C(=O)N[C@@H](CCCNC(=N)N)C(=O)N[C@@H](Cc2c[nH]cn2)C(N)=O)NC(=O)CNC(=O)[C@H](CC(C)C)NC(=O)CNC(=O)[C@H](CO)NC(=O)[C@H](CCC(N)=O)NC(=O)[C@H](C)NC(=O)CNC1=O [Example 18] ({C20 diacid-γGlu}-EKEKEKGSHRRSSCFGGRIDRIGAQSGLGCPSFRH-NH2; disulfide 14-30)	460 pM	–
